The source of these data is publication PMC6630668, “Comprehensive Analysis of Secondary Metabolites in Usnea longissima (Lichenized Ascomycetes, Parmeliaceae) Using UPLC-ESI-QTOF-MS/MS and Pro-Apoptotic Activity of Barbatic Acid” (Molecules, 2019).

Assay [1] has as its system HeLa (Human cervical cancer). The experiment in a line: MTT cytotoxicity assay, HeLa. The assay is classed as cell-based. Conditions: 50% cell proliferation inhibitory concentration after 48 h of compound treatment, compounds. As to the method: (§1) MTT assay was performed as described earlier. Cells were plated at a density of 1 × 10^4 cells/well in 100 µL Dulbecco’s Modified Eagle Medium (DMEM)/Minimum Essential Media (MEM) medium, supplemented with 10% FBS in 96-well plates for 24 h. After incubation, cells were treated with standard doxorubicin and test compounds for 48 h. After 48 h of treatment, 10 µL MTT (3-(4,5-dimethylthiazol-2 yl)-2,5-diphenyl tetrazolium bromide) (5 mg/mL) were added to each well and the plates were further incubated for 4 h. After 4 h, 100 µL DMSO was added to each well and absorbance at 570 nm wavelength was recorded spectrophotometrically.

In a further assay the test system is A549 (Human lung cancer). The experiment in a line: MTT cytotoxicity assay, A549. Conditions: 50% cell proliferation inhibitory concentration after 48 h of compound treatment, compounds. It counts as cell-based. Here is the method: as §1
The test system of assay [2] is MCF-7 (Human breast cancer). The experiment in a line: MTT cytotoxicity assay, MCF-7. The assay is classed as cell-based. Conditions: MCF7, 50% cell proliferation inhibitory concentration after 48 h of compound treatment, compounds. Here is the method: as §1
In assay [3] the test system is DU-145 (Human prostate cancer). The experiment in a line: MTT cytotoxicity assay, DU-145. The assay is classed as cell-based. Conditions: 50% cell proliferation inhibitory concentration after 48 h of compound treatment, compounds. Here is the method:
as §1

For assay [4], the system named is HEK-293 (Normal cell line, Human embryonic kidney). As to the kind of experiment: MTT cytotoxicity assay, HEK-293. The assay is classed as cell-based. Conditions: compounds. As to the method:
as §1

For the next assay, the system named is human cancer cell lines. The experiment in a line: MTT cytotoxicity assay, panel of cancer cell lines. It counts as cell-based. Conditions: HeLa, MCF-7 and DU-145, range over the cell lines, read-out: IC50 on additional cancer cell lines. Here is the method: as §1
Assay [5] deals with A549 cells. The experiment in a line: Cell cycle analysis by flow cytometry. The assay is classed as cell-based, human. Conditions: A549, 24 h. Here is the method: Flow cytometric analysis (FACS) was performed to evaluate the cell cycle arrest. A549 cells were seeded, incubated for 24 h and then treated with doxorubicin at 2 µM and compound 21 at 1 and 2 µM concentrations for 24 h. After that, cells were harvested and washed with phosphate buffered saline (PBS) followed by fixation in ice cold 70% ethanol. After fixation cells were incubated with RNase A (0.1 mg/mL) at 37 °C for 30 min and stained with propidium iodide (Sigma Aldrich, St. Louis, MO, USA) (50 μg/mL) for 30 min on ice in dark. Cell cycle analysis was performed by flow cytometry (Becton Dickinson FACS Caliber instrument).

The subject of assay [6] is A549 cells. The experiment in a line: Hoechst staining for apoptosis. It counts as cell-based, human. Conditions: A549, 1 and 2 µM, 48 h. As to the method:
A549 cells were seeded on cover slips and incubated for 24 h. After incubation, cells were treated with doxorubicin at 2 µM and compound 21 at 1 and 2 µM concentrations for 48 h. After 48 h treatment, Hoechst staining was performed using H33258 dye. Florescence images were captured by Olympus microscope using 10X lens.

Assay [7] concerns A549 cells. As to the kind of experiment: Annexin V-FITC assay for apoptosis. The assay is classed as cell-based, human. Conditions: A549, 24 h; for total apoptosis: control 1.12%. Here is the method:
A549 cells were seeded in six-well plates and incubated for 24 h. After incubation, cells were treated with doxorubicin at 2 µM and compound 21 at 1 and 2 µM concentrations and further incubated for 24 h. After 24 h treatment, cells were harvested by trypsinization. After harvesting, cells were washed with PBS at 5000 rpm. After washing, cells were stained with Annexin-V and propidium iodide using Annexin-V apoptosis detection kit (Sigma-Aldrich). Annexin V-FITC assay was performed as described earlier.

The subject of assay [8] is Poly (ADP-ribose) polymerase (PARP). The experiment in a line: Immunoblot assay for PARP cleavage. It counts as cell-based, human. Conditions: A549, 21 at 1 and 2 µM for 48 h; doxorubicin 1 µM. From the text: (§2) Following treatments, cells were washed twice with PBS and lysed in 1× SDS sample buffer. Proteins were separated on 10% SDS-polyacrylamide gels and transferred onto nitrocellulose membranes. Membranes were washed twice with tween Tris-buffered saline before blocking nonspecific binding with 5% nonfat dry milk (Blotto, Santa Cruz Biotechnology, Dallas, TX, USA) or 3% bovine serum albumin. Anti-Poly ADP-ribose Polymerase (PARP) (11835238001-Roche) antibody, that detects total and cleaved PARP was used at 1:1000 dilutions, and membranes were incubated for 2 h at room temperature. Anti-Cyclin D1 (C7464, Sigma Aldrich) and anti-CDK4 (SAB140559, Sigma Aldrich) were detected similar to PARP protein. Membranes were washed three times, and detection was performed using horseradish peroxidase-conjugated secondary antibody as described previously.

The next assay deals with CDK4 and Cyclin D1. As to the kind of experiment: Immunoblot assay for CDK4 and Cyclin D1. It counts as cell-based, human. Conditions: A549, 21 at 1 and 2 µM for 48 h; doxorubicin 1 µM.
From the text: as §2

A further assay deals with caspase-3. As to the kind of experiment: Caspase-3 assay (fluorimetric, Ac-DEVD-AMC). Conditions: A549, 2 µM. It counts as cell-based, human. Here is the method:
Following treatment, cell lysates were washed twice with phosphate-buffered saline and dissolved in lysis buffer (50 mM HEPES (pH 7.4) containing 5 mM CHAPS and 5 mM DTT) for 15 min on ice. Later, cells were centrifuged at 14,000× g for 15 min, under cold conditions, and collected the clear supernatant. The supernatant was added to assay buffer (20 mM HEPES (pH 7.4), 2 mM EDTA, 0.1% CHAPS, and 5 mM DTT) containing caspase 3 substrate (Ac-DEVD-AMC, 40 μM) in a final volume of 100 μL as described earlier. The incubation was performed for 1 h at 37 °C with readings recorded at 5-min intervals. Fluorescence released by AMC was measured at 360-nm and 460-nm excitation and emission wavelengths, respectively. Values were normalized to protein concentration and expressed as fold change of activity relative to DMSO control.

Where [9] appears, read: Homo sapiens, HEK293, 48 h, after 48 h of compound treatment.
Setting [10] is: Homo sapiens, 2 µM, read-out: live (viable) cells (LL).

On to `COc1cc(C)c(C(=O)Oc2cc(C)c(C(=O)O)c(O)c2C)c(O)c1C` [compound 21, barbatic acid], for which the IC50 was 3.02 ± 0.11 µM in assay [1]; 1.78 ± 0.62 µM in the assay on A549 (Human lung cancer); 3.16 ± 0.88 µM in assay [2]; 9.03 ± 2.11 µM in assay [3]; greater than 100 µM in assay [4] (setting [9]); 125 ± 2.65 µM in [4] (after 48 h of compound treatment). Moreover, in the assay with human cancer cell lines, the IC50 was 3.02 to 9.03 µM. Besides, the “cell accumulation in G0/G1 phase” value came out at 70.9% in the assay with A549 cells [5] (1 µM) and 74.4% in the assay on A549 cells [5] (2 µM). In addition, the “Hoechst staining, nuclear morphology (in words)” value in the assay with A549 cells [6] was “chromatin condensation and fragmented nuclei”. Besides, the “early apoptotic cells (LR)” value in the assay on A549 cells [7] (1 µM) is 7.68%; in the assay on A549 cells [7] (2 µM) it was 9.05%. The “late apoptotic cells (UR)” value in the assay on A549 cells [7] (1 µM) was 0.10%; with A549 cells [7] (2 µM) it was 0.24%. The “necrotic cells (UL)” value in the assay with A549 cells [7] (1 µM) was found to be 0.00%; in the assay with A549 cells [7] (2 µM), 0.07%. For the same compound, the total apoptosis entry in the assay on A549 cells [7] (1 µM) is on record as “about 7.78%”; in the assay on A549 cells [7] (2 µM), roughly 9.29%. In the assay on A549 cells [7] (Homo sapiens, 1 µM, read-out: live (viable) cells (LL)), the viability at 1 µM was determined as 92.2%. In the assay on A549 cells [7] (setting [10]), the viability at 2 µM amounted to 90.6%. Further, in assay [8], the “PARP cleavage (in words)” value was “robust cleavage of PARP protein”. In addition, the “CDK4 and Cyclin D1 protein levels (in words)” value in the assay with CDK4 and Cyclin D1 is listed as “accumulated”. For the same compound, in the assay with caspase-3, the “caspase-3 activity (in words)” value is on record as “increased maximally”.

`COc1cccc2c1C(=O)c1c(O)c3c(c(O)c1C2=O)C[C@@](O)(C(=O)CO)C[C@@H]3O[C@H]1C[C@H](N)[C@H](O)[C@H](C)O1` [Doxorubicin, doxorubicin, reference compound]: the IC50 in [1] was determined as 1.55 ± 1.32 µM; with A549 (Human lung cancer) it was 1.95 ± 0.97 µM; in assay [2] it was 1.62 ± 0.36 µM; in assay [3], 1.51 ± 0.84 µM. Further, in the assay on A549 cells [7] (2 µM), the “early apoptotic cells (LR)” value stood at 22.3%. Moreover, the “late apoptotic cells (UR)” value in the assay on A549 cells [7] (2 µM) was 9.79%. The “necrotic cells (UL)” value in the assay on A549 cells [7] (2 µM) amounted to 0.12%. Besides, the viability at 2 µM in the assay on A549 cells [7] (setting [10]) is 67.8%. The “PARP cleavage (in words)” value in [8] is “robust cleavage of PARP protein”. Moreover, the “CDK4 and Cyclin D1 protein levels (in words)” value in the assay with CDK4 and Cyclin D1 was “accumulated”.

`CC(=O)C1=C(O)C=C2Oc3c(C(C)=O)c(O)c(C)c(O)c3C2(C)C1=O` (single isomer, unassigned; (+)) [compound 22, (+)-usnic acid]: the IC50 in assay [1] was determined as 18.9 ± 2.06 µM; in the assay on A549 (Human lung cancer), 13.8 ± 1.11 µM; in [2], 19.2 ± 2.05 µM; in assay [3], 24.2 ± 0.99 µM; in assay [4] (Homo sapiens, HEK293, after 48 h of compound treatment) it was 125 ± 1.98 µM.

Consider `C[C@@H]1C(=O)OC(CCCCCCCCCCCCC[C@@H](C)O)C1C(=O)O` (stereo partly drawn) [compound 19, 18R-hydroxy-dihydroalloprotolichesterinic acid], for which the IC50 in assay [1] is 22.7 ± 0.97 µM; with A549 (Human lung cancer), 20.2 ± 1.99 µM; in assay [2], 20 ± 0.74 µM; in assay [3], 27 ± 2.92 µM; in assay [4] (setting [9]), 55.9 ± 1.55 µM.

For `CC1=C(C(=O)O)[C@H](CCCCCCCCCCCCCC(C)O)OC1=O` (stereo partly drawn) [compound 20, neuropogolic acid], the IC50 stood at 23.6 ± 0.74 µM in [1]; 19.1 ± 3.86 µM with A549 (Human lung cancer); 22.3 ± 4.05 µM in assay [2]; 26.1 ± 1.09 µM in [3]; 113 ± 3.82 µM in [4] (setting [9]).
